# Reference: patent US8853234B2, “Quinolone analogs and methods related thereto” (Senhwa Biosciences, Inc., priority 2007, dated 2014)
# Columns and labels:
# rDNA = experiment: Quantitative PCR (QPCR) assay, rRNA inhibition (rDNA); format: cell-based; design: Selectivity: reference not given here; conditions: for Selectivity: not defined in the patent; for IC50: rRNA inhibition from quantitative PCR assay
# Description: In a specific assay embodiment, provided herein is a method for identifying a molecule that modulates ribosomal RNA (rRNA) synthesis, which comprises: contacting cells with a test molecule of Formula (I), (II), (III), (IV), (V), (VI), (VI′), (VII), or (VIII), contacting a ribosomal nucleotide sequence with one or more primers that amplify a portion thereof and a labeled probe that hybridizes to the amplification product, and detecting the amount of the amplification product by hybridization of the labeled probe, whereby a test molecule that reduces or increases the amount of amplification product is identified as a molecule that modulates rRNA synthesis. The labeled probe in some embodiments is added after the primers are added and the rRNA is amplified, and in certain embodiments, the labeled probe and the primers are added at the same time. The portion of ribosomal nucleotide sequence amplified sometimes is at the 5′ end of rDNA.
# Real-time quantitative PCR (QPCR) method may be used to detect the changes of the target c-myc and the endogenous reference GAPDH gene copies in the same tube. Generally, cells (15,000 cells/well) are seeded on 96 well flat bottom plates (Corning, N.Y.) and incubated under normal growth conditions for overnight. The next day, the culture medium is exchanged for that containing anticancer drugs at various concentrations and incubated for 4 hrs in a humidified atmosphere of 5% CO2 at 37° C. Total RNA (tRNA) is extracted using the RNeasy 96 Kit (QIAGEN, CA). The concentration of the tRNA is determined by the RiboGreen RNA Quantitation Reagent (Molecular Probes, OR).
# A reverse-transcription (RT) reaction may be conducted using 50 ng of tRNA from each well in a 25 μl reaction containing 1× TaqMan RT buffer, 2.5 uM random hexamers, 5.5 mM MgCl2, 0.5 mM each deoxynucleoside triphosphate (dNTP), 30 U MultiScribe Reverse Transcriptase, and 10 U RNase inhibitor. RT reactions are incubated for 10 min at 25° C., reverse-transcribed for 30 min at 48° C., inactivated for 5 min at 95° C., and placed at 4° C. All RT reagents may be purchased from Applied Biosystems, CA.
# Real-Time QPCR reaction may be performed in a 50 μl reaction containing the 5 μl of cDNA, 1× Universal PCR Master Mix, 1× c-myc Pre-Developed Primers and Probe set, and 0.8×GAPDH Pre-Developed Primers and Probe set. Because of the relative abundance of GAPDH gene in Hela, GAPDH primers and probe concentration may be adjusted to get accurate threshold cycles (CT) for both genes in the same tube. The threshold cycle (CT) indicates the fractional cycle number at which the amount of amplified target reaches a fixed threshold. By doing so, the GAPDH amplification is stopped before it can limit the common reactants available for amplification of the c-myc. The ΔRn value represents the normalized reporter signal minus the baseline signal. ΔRn increases during PCR as amplicon copy number increases until the reaction approaches a plateau.
# The c-myc probe is labeled with 6FAM™ dye-MGB and the GAPDH probe is labeled with VIC™ dye-MTB. Preincubation is performed for 2 min at 50° C. to activate AmpErase UNG enzyme and then for 10 min at 95° C. to activate AmpliTaq DNA Polymerase. DNA is amplified for 40 cycles of 15 sec at 95° C. and 1 min at 60° C. Human c-myc and GAPDH cDNA are amplified, detected, and quantitated in real time using the ABI Prism 7000 Sequence Detection system (Applied Biosystems, CA), which is set to detect both 6-FAM and VIC reporter dyes simultaneously.
# The data may be analyzed using the ABI PRISM Sequence Detection System and Microsoft Excel. Relative quantitation is done using the standard curve and comparative CT method at the same time, and both methods gave equivalent results. The cycle at which the amplification plot crosses the CT is known to accurately reflect relative mRNA values. (See, Heid, et al., Genome Res. (1996) 6:986-994; Gibson, et al., Genome Res. (1996) 6:995-1001). […]
# [1] = system: HCT-116 human colorectal carcinoma cells; experiment: Alamar Blue (AB) cell proliferation assay, HCT-116; format: cell-based; conditions: 96 h, Alamar Blue cell proliferation inhibition, HCT-116, four days
# Method: A representative cell-proliferation assay protocol using Alamar Blue dye (stored at 4° C., use 20 ul per well) is described hereafter.
# 96-Well Plate Setup and Compound Treatment
# a. Split and trypsinize cells.
# b. Count cells using hemocytometer.
# c. Plate 4,000-5,000 cells per well in 100 μl of medium and seed into a 96-well plate according to the following plate layout. Add cell culture medium only to wells B10 to B12. Wells B1 to B9 have cells but no compound added.
# d. Add 100 μl of 2× drug dilution to each well in a concentration shown in the plate layout above. At the same time, add 100 μl of media into the control wells (wells B10 to B12). Total volume is 200 μl/well.
# e. Incubate four (4) days at 37° C., 5% CO2 in a humidified incubator.
# f. Add 20 μl Alamar Blue reagent to each well.
# g. Incubate for four (4) hours at 37° C., 5% CO2 in a humidified incubator.
# h. Record fluorescence at an excitation wavelength of 544 nm and emission wavelength of 590 nm using a microplate reader.
# In the assays, cells are cultured with a test compound for approximately four days, the dye then is added to the cells and fluorescence of […] dye is detected after approximately four hours. Different types of cells can be utilized in the assays (e.g., HCT-116 human colorectal carcinoma cells, PC-3 human prostatic cancer cells and MiaPaca human pancreatic carcinoma cells). Anti-proliferative effects of representative compounds are provided hereafter.
# Representative cassette dosing and bioavailability data are given in Table 8, along with cell proliferation inhibition (from Alamar Blue (AB) assay (e.g., Example 45 herein) and rRNA inhibition (from quantitative PCR (QPCR) assay (e.g., Example 46 herein).
smiles,measurement,setting,value
CN1CCCC1CCNC(=O)c1c(=O)c2cc(F)c(N3CCOCC3)nc2n2c3ccccc3n(C)c12 (stereo not drawn),Selectivity,rDNA,8
same,IC50,rDNA,0.521 µM
same,IC50,[1],0.21 µM
O=C(NCCNC1CCC1)c1c(=O)c2ccc(N3CCOCC3)nc2n2c1sc1ccccc12,Selectivity,rDNA,16
same,IC50,rDNA,0.176 µM
same,IC50,[1],0.286 µM
CN1CCN(c2ccc3c(=O)c(C(=O)NC4CC4)c4n(C)c5ccccc5n4c3n2)CC1,Selectivity,rDNA,4
same,IC50,rDNA,0.127 µM
same,IC50,[1],0.202 µM
O=C(NCCNC1CC1)c1c(=O)c2ccc(N3CCOCC3)nc2n2c1sc1ccccc12 [drawing 604],Selectivity,rDNA,39
same,IC50,rDNA,0.1 µM
same,IC50,[1],0.065 µM
Cc1cnc(CNC(=O)c2c(=O)c3ccc(N4CCN(C)CC4)nc3n3c2sc2ccccc23)cn1 [drawing 619],Selectivity,rDNA,13
same,IC50,rDNA,0.069 µM
same,IC50,[1],0.391 µM
